# System: Z-138 cells
# Experiment: Z-138 Proliferation Assay (Cell Titer Glo, 5 days)
# Assay type: cell-based
# Conditions: Homo sapiens, 120 h
# Description: Z-138 Proliferation Assay
# Z-138 suspension cells were purchased from ATCC (American Type Culture Collection, Manassas, Va.). RPMI/Glutamax medium, penicillin-streptomycin, heat inactivated fetal bovine serum were purchased from Life Technologies, Grand Island, N.Y., USA. V-bottom polypropylene 384-well plates were purchased from Greiner Bio-One, Monroe, N.C., USA. Cell culture 384-well white opaque plates were purchased from Perkin Elmer, Waltham, Mass., USA. Cell-Titer Glo® was purchased from Promega Corporation, Madison, Wis., USA. SpectraMax M5 plate reader was purchased from Molecular Devices LLC, Sunnyvale, Calif., USA.
# Z-138 suspension cells were maintained in growth medium (RPMI 1640 supplemented with 10% v/v heat inactivated fetal bovine serum and cultured at 37° C. under 5% CO2 Under assay conditions, cells were incubated in assay medium (RPMI 1640 supplemented with 10% v/v heat inactivated fetal bovine serum and 100 units/mL penicillin-streptomycin) at 37° C. under 5% CO2.
# For the assessment of the effect of compounds on the proliferation of the Z-138 cell line, exponentially growing cells were plated in 384-well white opaque plates at a density of 10,000 cells/ml in a final volume of 50 μl of assay medium. A compound source plate was prepared by performing triplicate nine-point 3-fold serial dilutions in DMSO, beginning at 10 mM (final top concentration of compound in the assay was 20 μM and the DMSO was 0.2%). A 100 nL aliquot from the compound stock plate was added to its respective well in the cell plate. […] After addition of compounds, assay plates were incubated for 5 days at 37° C., 5% CO2, relative humidity>90%.
# Cell viability was measured by quantitation of ATP present in the cell cultures, adding 35 μl of Cell Titer Glo® reagent to the cell plates. Luminescence was read in the SpectraMax M5 microplate reader. The concentration of compound inhibiting cell viability by 50% was determined using a 4-parametric fit of the normalized dose response curves.
row,SMILES,EC50 [µM]
1,"Cn1cnc2ccc(-c3cccc(OCC(O)CN4CCc5ccccc5C4)c3)cc21 (stereo not shown) [Compound 45, 1-(3,4-dihydroisoquinolin-2(1H)-yl)-3-(3-(1-methyl-1H-benzo[d]imidazol-6-yl)phenoxy)propan-2-ol]",1 to 10
2,"Cn1cnc2ccc(-c3ccnc(NCC(O)CN4CCc5ccccc5C4)c3)cc21 (stereo not shown) [Compound 118, 1-(3,4-Dihydroisoquinolin-2(1H)-yl)-3-((4-(1-methyl-1H-benzo[d]imidazol-6-yl)pyridin-2-yl)amino)propan-2-ol]",1 to 10
3,Cn1cnc2ccc(-c3cccc(OC[C@@H](O)CN4CCc5ccccc5C4)c3)cc21 [Compound 173],1 to 10
4,Cn1cnc2ccc(-c3cccc(OC[C@H](O)CN4CCc5ccccc5C4)c3)cc21 [Compound 174],1 to 10
5,"Cn1cnc2ccc(-c3cccc(OCC(O)CN4CCc5ccccc5C4)c3)nc21 (stereo not shown) [Compound 189, 1-(3,4-dihydroisoquinolin-2(1H)-yl)-3-(3-(3-methyl-3H-imidazo[4,5-b]pyridin-5-yl)phenoxy)propan-2-ol]",0.101 to 1
6,"Cc1ncc2ccc(-c3cccc(OCC(O)CN4CCc5ccccc5C4)c3)cn12 (stereo not shown) [Compound 266, 1-(3,4-dihydroisoquinolin-2(1H)-yl)-3-(3-(3-methylimidazo[1,5-a]pyridin-6-yl)phenoxy)propan-2-ol]",1 to 10
7,Cn1cnc2ccc(-c3ccnc(NC[C@H](O)CN4CCc5ccccc5C4)c3)cc21 [Compound 275],1 to 10

# Target: T1, PRMT5/MEP50 (Homo sapiens, UniProt O14744)
# T1 construct: Flag-PRMT5; 6His-MEP50
# Experiment: PRMT5 Biochemical Assay (PRMT5/MEP50 enzyme assay on peptide substrate, 3H-SAM Flashplate)
# Conditions: not given
# Procedure, shortened: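 FLAG-PRMT5/His-MEP50 from Sf9 cells (4 nM) preincubated 30 min at 25 °C with compound in 20 mM Bicine pH 7.6, 1 mM TCEP, 1% DMSO. Reaction started with 75 nM 3H-SAM on 40 nM biotinylated H4 1-15 peptide, stopped with cold SAM. Bound 3H-peptide counted on streptavidin Flashplates, normalised to DMSO and 100 uM SAH controls.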
# T1 sequence (O14744 with tags, fused parts or gaps): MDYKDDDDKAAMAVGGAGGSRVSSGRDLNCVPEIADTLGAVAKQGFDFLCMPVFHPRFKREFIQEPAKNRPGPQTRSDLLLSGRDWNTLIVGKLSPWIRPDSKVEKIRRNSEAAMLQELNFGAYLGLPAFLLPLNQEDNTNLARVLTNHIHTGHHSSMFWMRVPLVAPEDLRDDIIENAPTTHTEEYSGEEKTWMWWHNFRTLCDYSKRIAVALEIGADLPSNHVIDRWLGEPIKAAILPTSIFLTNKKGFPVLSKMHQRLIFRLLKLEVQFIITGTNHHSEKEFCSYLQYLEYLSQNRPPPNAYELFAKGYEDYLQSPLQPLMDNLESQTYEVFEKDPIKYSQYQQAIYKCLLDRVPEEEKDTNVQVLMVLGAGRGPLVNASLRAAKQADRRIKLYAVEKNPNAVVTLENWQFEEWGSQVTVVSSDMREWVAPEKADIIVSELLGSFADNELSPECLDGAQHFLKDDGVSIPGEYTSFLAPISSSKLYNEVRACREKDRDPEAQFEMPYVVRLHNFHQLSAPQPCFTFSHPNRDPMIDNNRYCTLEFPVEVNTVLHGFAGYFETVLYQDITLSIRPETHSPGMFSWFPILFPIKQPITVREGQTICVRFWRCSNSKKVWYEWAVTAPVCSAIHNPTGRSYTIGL
# T1 sequence (Q9BQA1 with tags, fused parts or gaps partner): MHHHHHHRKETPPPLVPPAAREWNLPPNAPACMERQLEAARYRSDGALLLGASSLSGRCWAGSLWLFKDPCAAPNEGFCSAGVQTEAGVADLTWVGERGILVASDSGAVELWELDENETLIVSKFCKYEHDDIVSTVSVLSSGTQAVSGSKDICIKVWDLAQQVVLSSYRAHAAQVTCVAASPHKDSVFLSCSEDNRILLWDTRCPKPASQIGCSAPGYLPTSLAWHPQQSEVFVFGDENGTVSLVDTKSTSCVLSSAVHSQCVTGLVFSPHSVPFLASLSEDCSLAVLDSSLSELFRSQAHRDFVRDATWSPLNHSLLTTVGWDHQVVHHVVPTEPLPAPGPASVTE
row,SMILES,IC50 [µM]
1,Cn1ncc2ccc(-c3cc(NCC(O)CN4CCc5ccccc5C4)ncn3)cc21 (stereo not shown) [Compound 205],0.101 to 1
2,CNC(=O)Cn1ccc2cnc(-c3cccc(OCC(O)CN4CCc5ccccc5C4)c3)nc21 (stereo not shown) [Compound 206],1 to 10
3,Cn1cnc2ccc(-c3cc(NCC(O)CN4CCc5ccccc5C4)ncn3)cc21 (stereo not shown) [Compound 207],0.101 to 1
4,Cn1cnc2ccc(-c3cccc(OCC(O)CN4CCc5ccccc5C4(C)C)c3)cc21 (stereo not shown) [Compound 211],1 to 10
5,Cc1ccc2c(c1)CN(CC(O)COc1cccc(-c3ccc4ncn(C)c4c3)c1)CC2 (stereo not shown) [Compound 212],1 to 10
6,Cc1cccc2c1CCN(CC(O)COc1cccc(-c3ccc4ncn(C)c4c3)c1)C2 (stereo not shown) [Compound 213],1 to 10
7,Cn1cnc2ccc(-c3cccc(OCC(O)CN4CCc5ccc(Cl)cc5C4)c3)cc21 (stereo not shown) [Compound 214],1 to 10
8,Cn1cnc2ccc(-c3cccc(OCC(O)CN4CCc5c(Cl)cccc5C4)c3)cc21 (stereo not shown) [Compound 215],1 to 10
9,"Cn1ncc2c1CN(c1cccc(OCC(O)CN3CCc4ccccc4C3)c1)CC2 (stereo not shown) [Compound 216, 1-(3,4-dihydroisoquinolin-2(1H)-yl)-3-(3-(1-methyl-4,5-dihydro-1H-pyrazolo[3,4-c]pyridin-6(7H)-yl)phenoxy)propan-2-ol]",0.101 to 1
10,Cn1cnc2ccc(-c3cc(NCC(O)CN4CCc5ccccc5C4)ccn3)cc21 (stereo not shown) [Compound 217],0.101 to 1
11,O=C(Cn1ccc2cnc(-c3cccc(OCC(O)CN4CCc5ccccc5C4)c3)nc21)N1CCOCC1 (stereo not shown) [Compound 222],0.101 to 1
12,Cn1cc2ccc(-c3cc(NCC(O)CN4CCc5ccccc5C4)ncn3)cc2n1 (stereo not shown) [Compound 224],0.101 to 1
13,"CC(=O)N1CCC(n2cnc3ccc(-c4cccc(OCC(O)CN5CCc6ccccc6C5)c4)cc32)CC1 (stereo not shown) [Compound 228, 1-(4-(6-(3-(3-(3,4-dihydroisoquinolin-2(1H)-yl)-2-hydroxypropoxy)phenyl)-1H-benzo[d]imidazol-1-yl)piperidin-1-yl)ethanone]",0.101 to 1
14,O=C(Cn1ccc2cnc(-c3cccc(OCC(O)CN4CCc5ccccc5C4)c3)nc21)N1CCCC1 (stereo not shown) [Compound 231],0.101 to 1
15,O=C(Cn1ccc2cnc(-c3cccc(OCC(O)CN4CCc5ccccc5C4)c3)nc21)N1CCCCC1 (stereo not shown) [Compound 232],0.101 to 1
16,Cn1ccc2ccc(-c3cc(NCC(O)CN4CCc5ccccc5C4)ncn3)cc21 (stereo not shown) [Compound 237],0.101 to 1
17,CC(=O)N1CCC(n2cnc3ccc(-c4ccnc(NCC(O)CN5CCc6ccccc6C5)c4)cc32)CC1 (stereo not shown) [Compound 242],0.101 to 1
18,CC(=O)N1CCC(n2cnc3cnc(-c4cccc(OCC(O)CN5CCc6ccccc6C5)c4)nc32)CC1 (stereo not shown) [Compound 243],0.101 to 1
19,CN1CCN(C(=O)Cn2ccc3cnc(-c4cccc(OCC(O)CN5CCc6ccccc6C5)c4)nc32)CC1 (stereo not shown) [Compound 244],0.101 to 1
20,"Cn1ncc2cnc(-c3cccc(OCC(O)CN4CCc5ccccc5C4)c3)cc21 (stereo not shown) [Compound 248, 1-(3,4-dihydroisoquinolin-2(1H)-yl)-3-(3-(1-methyl-1H-pyrazolo[4,3-c]pyridin-6-yl)phenoxy)propan-2-ol]",0.101 to 1
21,O=C(Cn1cnc2ccc(-c3cccc(OCC(O)CN4CCc5ccccc5C4)c3)cc21)N1CCCCC1 (stereo not shown) [Compound 249],0.101 to 1
22,O=C(Cn1cnc2ccc(-c3cccc(OCC(O)CN4CCc5ccccc5C4)c3)cc21)N1CCCC1 (stereo not shown) [Compound 263],0.101 to 1
23,O=C(Nc1ccccn1)c1cccc(OCC(O)CN2CCc3ccccc3C2)c1 (stereo not shown) [Compound 267],0.101 to 1
24,O=C(Nc1cccnc1)c1cccc(OCC(O)CN2CCc3ccccc3C2)c1 (stereo not shown) [Compound 268],1 to 10
25,CN1CCN(C(=O)Cn2cnc3ccc(-c4cccc(OCC(O)CN5CCc6ccccc6C5)c4)cc32)CC1 (stereo not shown) [Compound 270],0.101 to 1
26,"Cn1cnc2ccc(-c3cc(NCC(O)CN4CCc5ccccc5C4)n[nH]3)cc21 (stereo not shown) [Compound 271, 1-(3,4-dihydroisoquinolin-2(1H)-yl)-3-((5-(1-methyl-1H-benzo[d]imidazol-6-yl)-1H-pyrazol-3-yl)amino)propan-2-ol]",0.101 to 1
27,"Cn1cnc2cc(-c3cc(NCC(O)CN4CCc5ccccc5C4)n[nH]3)ccc21 (stereo not shown) [Compound 272, 1-(3,4-dihydroisoquinolin-2(1H)-yl)-3-((5-(1-methyl-1H-benzo[d]imidazol-5-yl)-1H-pyrazol-3-yl)amino)propan-2-ol]",0.101 to 1

row,SMILES,IC50 [µM]
1,O=C(Nc1cc[nH]n1)c1cccc(OCC(O)CN2CCc3ccccc3C2)c1 (stereo not shown) [Compound 274],1 to 10
2,COc1c(COCC(O)CN2CCc3ccccc3C2)ccc2ccccc12 (stereo not shown) [Compound 279],1 to 10
3,OC(COCc1c(Cl)cccc1Cl)CN1CCc2ccccc2C1 (stereo not shown) [Compound 280],1 to 10
4,OC(COCc1ccc(Cl)cc1Cl)CN1CCc2ccccc2C1 (stereo not shown) [Compound 281],1 to 10
5,OC(COCc1ccccn1)CN1CCc2ccccc2C1 (stereo not shown) [Compound 282],10 to 40
6,OC(COCc1cccnc1)CN1CCc2ccccc2C1 (stereo not shown) [Compound 283],10 to 40
7,OC(COCc1ccncc1)CN1CCc2ccccc2C1 (stereo not shown) [Compound 284],10 to 40
8,OC(COc1ccc2c(c1)OCO2)CN1CCc2ccccc2C1 (stereo not shown) [Compound 285],1 to 10
9,CCCCNCc1cccc(COCC(O)CN2CCc3ccccc3C2)c1 (stereo not shown) [Compound 286],0.101 to 1
10,CC(C)(C)OC(=O)N1CCC(OCC(O)CN2CCc3ccccc3C2)C1 (stereo not shown) [Compound 287],1 to 10
11,COc1cccc(COCC(O)CN2CCc3ccccc3C2)c1 (stereo not shown) [Compound 288],1 to 10
12,CC(C)(C)OC(=O)N1CC(OCC(O)CN2CCc3ccccc3C2)C1 (stereo not shown) [Compound 290],1 to 10
13,CC(C)(C)OC(=O)N1CCCC(OCC(O)CN2CCc3ccccc3C2)C1 (stereo not shown) [Compound 291],1 to 10
14,CC(C)(C)OC(=O)N1CCC(OCC(O)CN2CCc3ccccc3C2)CC1 (stereo not shown) [Compound 292],1 to 10
15,OC(COCC1CCCCC1)CN1CCc2ccccc2C1 (stereo not shown) [Compound 294],1 to 10
16,CC(OCC(O)CN1CCc2ccccc2C1)c1cccnc1 (stereo not shown) [Compound 299],10 to 40
17,OC(COCC1COc2ccccc2O1)CN1CCc2ccccc2C1 (stereo not shown) [Compound 300],0.101 to 1
18,OC(COC1Cc2ccccc2C1)CN1CCc2ccccc2C1 (stereo not shown) [Compound 301],1 to 10
19,OC(COC1CCCC1)CN1CCc2ccccc2C1 (stereo not shown) [Compound 302],1 to 10
20,OC(COCC1CC1)CN1CCc2ccccc2C1 (stereo not shown) [Compound 303],1 to 10
21,OC(COCC1CCCO1)CN1CCc2ccccc2C1 (stereo not shown) [Compound 305],10 to 40
22,OC(COCc1ccccc1)CN1CCc2ccccc2C1 (stereo not shown) [Compound 308],10 to 40
23,OC(COC1CCCCCC1)CN1CCc2ccccc2C1 (stereo not shown) [Compound 309],1 to 10
24,OC(COC1CCOCC1)CN1CCc2ccccc2C1 (stereo not shown) [Compound 310],10 to 40
25,CC(=O)N1CC(Nc2cc(CNCC(O)CN3CCc4ccccc4C3)ncn2)C1 (stereo not shown) [Compound 311],> 10
26,CC(=O)N1CCC(Nc2cc(CNCC(O)CN3CCc4ccccc4C3)ncn2)CC1 (stereo not shown) [Compound 312],> 10
27,CC(=O)N1CCC(Nc2cc(CNCC(O)CN3CCc4ccccc4C3)ccn2)CC1 (stereo not shown) [Compound 313],> 10
